Measured values reported in US11357857B2, “Excipient compounds for protein processing” (COMERA LIFE SCIENCES, INC., priority 2014, dated 2022).
Counter-ions that a name gives are not always drawn. Like-named read-outs stand apart in the source and are kept apart here. Each block holds one compound with its values, some of them ahead of it. Residues, ends and D or L forms follow the SMILES beside them.

Legend:
[1] = system: bovine gamma globulin (BGG)
[2] = system: bovine gamma globulin (BGG); experiment: Normalized viscosity of 280 mg/mL BGG in 20 mM histidine with excipients A/B (Example 20); assay type: physicochemical; details: no B
Source text: Excipient compounds for this Example are listed below in Table 11.

[3] = Caffeine solubility testing with co-solutes at ambient temperature (Examples 32-33); details: co-solute 80 mg/mL, caffeine 80 mg/mL
Method: Prepared solutions were used either neat or diluted with deionized water.
A small magnetic stir bar was added to the vial, and the solution was allowed to mix vigorously on a stir plate for about 10 minutes.

[4] = system: bovine gamma globulin (BGG); experiment: Viscosity of 280 mg/mL BGG formulations in 50 mM histidine HCl pH 6 with excipient, cone and plate viscometer (Examples 1, 2, 4-6); assay type: physicochemical
[5] = Viscosity of PEG (Mw ~1,000,000) solution in Tris buffer with excipient (Examples 12-13); assay type: physicochemical

Structure (SMILES): CCCCn1cc[n+](C)c1.[Cl-] [1-butyl-3-methylimidazolium chloride]
Viscosity Reduction ([1]; excipient 100 mg/mL): 52%

Structure (SMILES): CCCCCCn1cc[n+](C)c1.[Cl-] [1-hexyl-3-methylimidazolium chloride]
Viscosity Reduction ([1]; excipient 65 mg/mL): 11%

Structure (SMILES): Cc1cc(C)nc(C)c1 [2,4,6-trimethylpyridine]
Viscosity Reduction ([1]; excipient 50 mg/mL): 51%

Structure (SMILES): O=C1CCCN1 [2-Pyrrolidinone]
Viscosity Reduction ([1]; excipient 60 mg/mL): 32%

Structure (SMILES): CC1=NCCN1.Cl [2-methyl-2-imidazoline HCl]
Normalized Viscosity ([1]; excipient 60 mg/mL): 0.43 | Viscosity Reduction ([1]; excipient 60 mg/mL): 57%

Structure (SMILES): Nc1cccnc1 [3-aminopyridine]
Viscosity Reduction ([1]; excipient 50 mg/mL): 49%

Structure (SMILES): N=C(N)NCCCCN.O=S(=O)(O)O [Agmatine sulfate]
Viscosity Reduction ([1]; excipient 55 mg/mL): 23%

Structure (SMILES): O=C(O)CCCC[C@@H]1SC[C@@H]2NC(=O)N[C@@H]21 [Biotin]
Viscosity Reduction ([1]; excipient 20 mg/mL): 31%

Structure (SMILES): O=C(O)[C@H](O)[C@@H](O)[C@H](O)[C@H](O)CO [D-Gluconic acid/K salt, D-Gluconic acid]
Viscosity ([5]; excipient 20 mg/mL): 88.4 cP | Viscosity Reduction ([5]; excipient 20 mg/mL): 16% | Viscosity ([5]; excipient 40 mg/mL): 80.32 cP | Viscosity Reduction ([5]; excipient 40 mg/mL): 23%

Structure (SMILES): O=C(O)[C@H](O)[C@@H](O)[C@H](O)[C@H](O)CO [D-Gluconic acid/Na salt, D-Gluconic acid]
Viscosity ([5]; excipient 20 mg/mL): 86.6 cP | Viscosity Reduction ([5]; excipient 20 mg/mL): 17% | Viscosity ([5]; excipient 40 mg/mL): 81.24 cP | Viscosity Reduction ([5]; excipient 40 mg/mL): 23%

Structure (SMILES): CN(C)C1CCCCC1 [DMCHA-HCl, dimethylcyclohexylamine]
Viscosity [4]: 35 cP | Viscosity Reduction [4]: 56% | Viscosity ([4]; excipient 28 mg/mL): 50 cP | Viscosity Reduction ([4]; excipient 28 mg/mL): 37% | Viscosity ([4]; excipient 41 mg/mL): 43 cP | Viscosity Reduction ([4]; excipient 41 mg/mL): 46% | Viscosity ([4]; excipient 50 mg/mL): 45 cP | Viscosity Reduction ([4]; excipient 50 mg/mL): 43% | Viscosity ([4]; excipient 82 mg/mL): 36 cP | Viscosity Reduction ([4]; excipient 82 mg/mL): 54% | Viscosity ([4]; excipient 164 mg/mL): 40 cP | Viscosity Reduction ([4]; excipient 164 mg/mL): 49% | Viscosity Reduction ([1]; excipient 120 mg/mL): 56%

Structure (SMILES): NCCN [Ethylene diamine]
Viscosity ([5]; excipient 20 mg/mL): 83.9 cP | Viscosity Reduction ([5]; excipient 20 mg/mL): 15% | Viscosity ([5]; excipient 40 mg/mL): 84.7 cP | Viscosity Reduction ([5]; excipient 40 mg/mL): 17%

Structure (SMILES): c1c[nH]cn1 [Imidazole HCl]
Viscosity Reduction ([1]; excipient 100 mg/mL): 57%

Structure (SMILES): C1COCCN1.Cl [Morpholine HCl]
Viscosity Reduction ([1]; excipient 50 mg/mL): 40%

Second part, the compound after the results:

Viscosity Reduction ([1]; excipient 60 mg/mL): 34%
Structure (SMILES): CCCCn1cc[n+](C)c1.[I-] [1-butyl-3-methylimidazolium iodide]

Normalized Viscosity ([2]; excipient A 40 mg/mL): 0.61 | Normalized Viscosity ([2]; excipient A 80 mg/mL): 0.44 | Observation of caffeine dissolution [3]: DND
Structure (SMILES): CC1=CC(=O)NS(=O)(=O)O1 [Acesulfame K, acesulfame potassium]

Viscosity ([4]; excipient 26 mg/mL): 47 cP | Viscosity Reduction ([4]; excipient 26 mg/mL): 41% | Viscosity ([4]; excipient 50 mg/mL): 66 cP | Viscosity Reduction ([4]; excipient 50 mg/mL): 16%
Structure (SMILES): Nc1ncnc2c1ncn2[C@@H]1O[C@H](COP(=O)(O)O)[C@@H](O)[C@H]1O [Adenosine monophosphate]

Normalized Viscosity ([2]; excipient A 10 mg/mL): 0.83
Structure (SMILES): COC(=O)[C@H](Cc1ccccc1)NC(=O)[C@@H](N)CC(=O)O [Aspartame] (H-Asp-Phe-OMe)

Viscosity ([4]; excipient 29 mg/mL): 51 cP | Viscosity Reduction ([4]; excipient 29 mg/mL): 35% | Viscosity ([4]; excipient 50 mg/mL): 51 cP | Viscosity Reduction ([4]; excipient 50 mg/mL): 35%
Structure (SMILES): NC(C1CCCCC1)C1CCCCC1 [DCHMA-HCl, dicyclohexylmethylamine]

Viscosity ([4]; excipient 40 mg/mL): 54 cP | Viscosity Reduction ([4]; excipient 40 mg/mL): 32% | Viscosity ([4]; excipient 87 mg/mL): 57 cP | Viscosity Reduction ([4]; excipient 87 mg/mL): 28%
Structure (SMILES): CN(C)CCCN [DMAPA-HCl, dimethylaminopropylamine]

Viscosity ([5]; excipient 20 mg/mL): 76.9 cP | Viscosity Reduction ([5]; excipient 20 mg/mL): 27% | Viscosity ([5]; excipient 40 mg/mL): 67.1 cP | Viscosity Reduction ([5]; excipient 40 mg/mL): 36%
Structure (SMILES): O=C(O)CN(CCN(CC(=O)O)CC(=O)O)CC(=O)O [EDTA/K salt, ethylenediaminetetraacetic acid (EDTA)]

Viscosity ([5]; excipient 20 mg/mL): 77.4 cP | Viscosity Reduction ([5]; excipient 20 mg/mL): 26% | Viscosity ([5]; excipient 40 mg/mL): 68.1 cP | Viscosity Reduction ([5]; excipient 40 mg/mL): 35%
Structure (SMILES): O=C(O)CN(CCN(CC(=O)O)CC(=O)O)CC(=O)O [EDTA/Na salt, ethylenediaminetetraacetic acid (EDTA)]

Viscosity Reduction ([1]; excipient 50 mg/mL): 59%
Structure (SMILES): Cl.NCCc1c[nH]cn1 [Histamine HCl]

Viscosity Reduction ([1]; excipient 50 mg/mL): 52%
Structure (SMILES): NC(=O)c1ccncc1 [Isonicotinamide]

Viscosity Reduction ([1]; excipient 50 mg/mL): 21%
Structure (SMILES): Cn1cncc1C[C@H](NC(=O)CCN)C(=O)O.O=[N+]([O-])O [L-Anserine nitrate]
